We go through 9 compounds from US10851092B2, “Pyridine compound” (Daiichi Sankyo Company, Limited, priority 2016, dated 2020).

Where two headings read alike, the source gives them in different places.

Data set [1] concerns the target KDR kinase (Homo sapiens (Human), UniProt P35968). Description: Evaluation of KDR kinase inhibiting activity (cell system), HUVEC, AlphaLISA. It is filed as cell-based. The protocol:
HUVEC cells were seeded on a plate at a cell density of 1500 cells per well, and then cultured overnight. The test compound (10 uM, 2.5 uM, 625 nM, 156 nM, […], 10 nM, 2.5 nM, or 0.6 nM) was added to each well, followed by culturing the obtained mixture for 2 hours. Thereafter, VEGF165 (Peprotech, #100-20) was added to the culture at a final concentration of 50 ng/ml, and the obtained mixture was then reacted at 37° C. for 5 minutes. Thereafter, the resulting cells were lysed with 50 ul of Lysis buffer included in AlphaLISA SureFire Ultra (Perkin Elmer, # ALSU-PVGFR-A500), and Acceptor beads and Donor beads were then added to 10 ul of the cell lysate according to the instruction manual included with the aforementioned kit. The mixture thus obtained was reacted at room temperature overnight, and thereafter, a KDR kinase inhibiting activity rate was measured using Envision (Perkin Elmer).
The value for a well to which only the Lysis buffer had been added was subtracted as a background from all of the values. Thereafter, the value for a well to which […] had been added and the test compound had not been added was defined as a KDR kinase activity of 100%, and the obtained value was corrected.
A general note: In Alpha technology, singlet oxygen from a donor bead excites a nearby acceptor bead.

Data set [2] addresses RET-wild type (Homo sapiens (Human), UniProt P07949). Description: Evaluation of RET kinase inhibiting activity (cell system), Ba/F3 cells overexpressing Myc tagged RET. The following applies: Form: Free, read-out: IC50 (nM) RET. It is filed as cell-based. On the procedure: Thereafter, 1 mL of Cell Lysis Buffer (Cell signaling technology, #9803), a single tablet of Phosphatase inhibitor (Roche, #04906837001), and a single tablet of Protease inhibitor (Roche, #0469312400) were added to 9 mL of MilliQ, and 20 ul of the obtained mixture was then added to each well. The mixture thus obtained was placed on ice for 20 minutes, so that the cells were lysed. A 5-ul aliquot was taken from the cell lysate, and thereafter, 64 nl of Myc antibody (Cell signaling technology, #3946) and Streptavidin Donor beads in an equal amount of 102 nl of P-Tyr-100 Acceptor beads included in the Alpha Screen Phosphotyrosine (P-Tyr-100) assay kit (Perkin Elmer, #6760620C) were added to the aliquot in accordance with the instruction manual included with the aforementioned assay kit. The obtained mixture was reacted at room temperature overnight, and a RET kinase inhibiting activity rate was then measured using Envision.

Data set [3] concerns the target RET recombinant protein (RET-wild type) (Homo sapiens (Human), UniProt P07949). Nature of the data set: Evaluation of RET kinase inhibiting activity (cell-free system), mobility shift assay. It is filed as biochemical. On the procedure:
(§1) 19 uL of the RET kinase solution was added to each of lines A to P of a 384-well plate, and thereafter, the test compound at each concentration was added to lines C to N, and further, 1 uL of dimethyl sulfoxide (hereinafter referred to as DMSO) was added to each of lines A, B, O and P. Thereafter, the obtained mixtures were each preincubated at room temperature for 20 minutes. Furthermore, a substrate solution A containing ATP (final concentration: 1 mM) and a substrate solution B containing no ATP, both in addition to a reaction buffer and FL-Peptide 22 (PerkinElmer, #760366, final concentration: 1.5 uM) were produced. The substrate solution A was added in an amount of 5 uL to lines B to 0, whereas the substrate solution B was added in an amount of 5 uL to lines A and P. The obtained mixtures were each incubated at 28° C. for 45 minutes. A reaction termination solution (100 mM HEPES (pH 7.4), 0.015% Briji-35, 40 mM EDTA, and 0.1% Coating Reagent 3) was added in an amount of 40 ul to the reaction mixture, so as to terminate the reaction.
(§2) Using EZ Reader II (Perkin Elmer), a substrate peptide was separated from a phosphorylated peptide in the reaction solution, and the product ratio (P/(P+S)) calculated from the peak (S) of the substrate peptide and the peak (P) of the phosphorylated peptide was used for evaluation. The inhibition of the test compound having each concentration was obtained by the following formula (automatically calculated using the software of EZ Reader II System). Inhibition (%)=100×(1−Ci/Co) (a) Ci: Conversion rate of a reaction of a test compound with substrate solution A−conversion rate of a reaction of DMSO with substrate solution B Co: Conversion rate of a reaction of DMSO with substrate solution A−conversion rate of a reaction of DMSO with substrate solution B
(§3) Based on the inhibition rates of the test compound at 12 different concentrations according to the formula (a), a 4-parameter logistic regression curve was drawn. At this time, the 4-parameter logistic regression equation is expressed as follows. Inhibition (%)=Bottom+(Top−Bottom)/(1+(X/IC50)^^slope) (b) Top: Upward asymptote Slope: Slope parameter IC50: Value X of (Top+Bottom)/2 Bottom: Downward asymptote X: Concentration of test compound
(§4) First, any given initial values are inputted into Top, Slope, IC50, Bottom (Top=100, Slope=−1, IC50=approx. IC50, and Bottom=0), so that a regression curve was drawn. Subsequently, a least-squares method was executed to the sum of squares of a difference between the measured value and the estimated value obtained from formula (b) to calculate the coefficient of the 4-parameter logistic regression equation, so as to calculate IC50.

Data set [4] addresses RET-Gatekeeper mutation (V804L) recombinant protein (Homo sapiens (Human), UniProt P07949, V804L). Nature of the data set: Evaluation of RET kinase inhibiting activity (cell-free system), gatekeeper mutant. The following applies: non-cell system; read-out: Biochemical assay (non-cell system) IC50 (nM) RET-V804L. The class given is biochemical. The protocol:
as §1, §2, §3, §4

Data set [5] has as its system phosphorylated RET in Ba/F3-RET-V804M tumors. Description: One shot PKPD analysis, Ba/F3-RET-V804M tumors. It is filed as in vivo, mice.
The test system of data set [6] is non-small cell lung cancer cell line LC-2/ad having a CCDC6-RET fusion gene. Description: Cell growth inhibitory activity, non-small cell lung cancer cell line LC-2/ad. It is filed as cell-based. The following applies: Homo sapiens, 216 h; LC-2/ad cells, 9 days, CellTiter-Glo. The protocol: The cell growth inhibitory activity of the test compound on the non-small cell lung cancer cell line LC-2/ad having a CCDC6-RET fusion gene (RIKEN, J Thorac Oncol. 2012 December, 7(12), 1872-6) was measured.
LC-2/ad cells were seeded on a 96-well plate at a cell density of 5,000 cells per well, and then cultured at 37° C. in the presence of 5% CO2 overnight in a medium prepared by mixing RPMI-1640 containing 15% FBS and 25 mM HEPES with Ham's F12 Mixture at a mixing ratio of 1:1. Thereafter, the test compound was diluted, and then added to the 96-well plate. As a negative control, dimethyl sulfoxide (hereinafter referred to as DMSO) was added. The obtained mixture was cultured at 37° C. in the presence of 5% CO2 for 9 days, and thereafter, a cell count measuring reagent CellTiter-Glo® Luminescent Cell Viability Assay (Promega, # G7571) was added to the culture, followed by stirring the mixture. Thereafter, using a luminescence measurement device Envision, the luminescence intensity was measured. The measurement value of a well to which only the medium had been added was define as a survival rate of 0%, and the measurement value of a well to which DMSO had been added was defined as a survival rate of 100%. The survival rate of the LC-2/ad cells in the presence of each concentration of the test compound was calculated.

The subject of data set [7] is thyroid gland cancer cell line TT having RET activating mutation (C634W). Nature of the data set: Cell growth inhibitory activity, thyroid gland cancer cell line TT. The class given is cell-based. The note with it: Homo sapiens, 216 h; TT cells, 9 days, CellTiter-Glo. On the procedure: The cell growth inhibitory activity of the test compound on the thyroid gland cancer cell line TT having RET activating mutation (C634W) (Biochemical and Biophysical Research Communications. 1995 Feb. 27 (207), 1022-1028) was measured.
TT cells were seeded on a 96-well plate at a cell density of 5,000 cells per well, and were then cultured at 37° C. in the presence of 5% CO2 overnight in an F-12K nutrient mixture medium containing 10% FBS. Thereafter, the compound was diluted, and then added to the 96-well plate. As a negative control, dimethyl sulfoxide (hereinafter referred to as DMSO) was added. The obtained mixture was cultured at 37° C. in the presence of 5% CO2 for 9 days, and thereafter, a cell count measuring reagent CellTiter-Glo® Luminescent Cell Viability Assay was added to the culture, followed by stirring the mixture. Thereafter, using a luminescence measurement device Envision (Perkin Elmer), the luminescence intensity was measured. The measurement value of a well to which only the medium had been added was define as a survival rate of 0%, and the measurement value of a well to which DMSO had been added was defined as a survival rate of 100%. The survival rate of the TT cells in the presence of each concentration of the test compound was calculated.
On the technique in general: Cellular ATP, detected with luciferase, serves as a proxy for viable cell number.

The mark [8] stands for this setting: cell system, Form: Mesylate, read-out: IC50 (nM) KDR.
Setting [9] is: cell system, comparator compounds, Form: Free, read-out: IC50 (nM) KDR.

Sequence of RET-wild type (P07949 29-1114): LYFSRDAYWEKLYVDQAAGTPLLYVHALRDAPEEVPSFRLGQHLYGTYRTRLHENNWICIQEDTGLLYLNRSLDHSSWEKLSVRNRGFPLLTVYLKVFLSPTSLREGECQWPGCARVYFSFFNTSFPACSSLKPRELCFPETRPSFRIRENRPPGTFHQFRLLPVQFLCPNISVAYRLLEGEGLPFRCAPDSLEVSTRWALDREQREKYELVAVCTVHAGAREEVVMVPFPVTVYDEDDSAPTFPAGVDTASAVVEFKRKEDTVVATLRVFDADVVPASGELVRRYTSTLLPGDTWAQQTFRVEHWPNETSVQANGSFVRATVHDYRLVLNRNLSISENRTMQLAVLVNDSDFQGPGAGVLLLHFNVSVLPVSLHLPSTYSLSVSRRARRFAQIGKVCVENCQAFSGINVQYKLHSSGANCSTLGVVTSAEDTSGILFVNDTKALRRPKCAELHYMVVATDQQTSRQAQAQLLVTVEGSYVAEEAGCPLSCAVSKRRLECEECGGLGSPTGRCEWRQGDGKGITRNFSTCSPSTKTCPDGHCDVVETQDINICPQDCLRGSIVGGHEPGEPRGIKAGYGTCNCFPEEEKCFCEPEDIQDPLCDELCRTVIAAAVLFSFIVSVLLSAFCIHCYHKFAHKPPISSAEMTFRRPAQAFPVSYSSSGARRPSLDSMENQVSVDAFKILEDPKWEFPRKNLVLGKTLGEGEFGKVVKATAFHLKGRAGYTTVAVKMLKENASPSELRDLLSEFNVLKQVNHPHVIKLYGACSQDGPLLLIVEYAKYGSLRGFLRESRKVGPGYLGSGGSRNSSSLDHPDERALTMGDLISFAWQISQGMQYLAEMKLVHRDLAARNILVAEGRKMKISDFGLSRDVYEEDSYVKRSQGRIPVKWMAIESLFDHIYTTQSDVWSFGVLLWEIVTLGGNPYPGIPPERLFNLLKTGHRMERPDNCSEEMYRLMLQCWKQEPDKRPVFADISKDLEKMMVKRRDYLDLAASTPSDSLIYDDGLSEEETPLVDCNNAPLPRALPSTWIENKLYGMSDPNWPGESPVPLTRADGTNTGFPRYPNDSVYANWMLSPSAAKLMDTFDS
Sequence of KDR kinase (P35968 20-1356): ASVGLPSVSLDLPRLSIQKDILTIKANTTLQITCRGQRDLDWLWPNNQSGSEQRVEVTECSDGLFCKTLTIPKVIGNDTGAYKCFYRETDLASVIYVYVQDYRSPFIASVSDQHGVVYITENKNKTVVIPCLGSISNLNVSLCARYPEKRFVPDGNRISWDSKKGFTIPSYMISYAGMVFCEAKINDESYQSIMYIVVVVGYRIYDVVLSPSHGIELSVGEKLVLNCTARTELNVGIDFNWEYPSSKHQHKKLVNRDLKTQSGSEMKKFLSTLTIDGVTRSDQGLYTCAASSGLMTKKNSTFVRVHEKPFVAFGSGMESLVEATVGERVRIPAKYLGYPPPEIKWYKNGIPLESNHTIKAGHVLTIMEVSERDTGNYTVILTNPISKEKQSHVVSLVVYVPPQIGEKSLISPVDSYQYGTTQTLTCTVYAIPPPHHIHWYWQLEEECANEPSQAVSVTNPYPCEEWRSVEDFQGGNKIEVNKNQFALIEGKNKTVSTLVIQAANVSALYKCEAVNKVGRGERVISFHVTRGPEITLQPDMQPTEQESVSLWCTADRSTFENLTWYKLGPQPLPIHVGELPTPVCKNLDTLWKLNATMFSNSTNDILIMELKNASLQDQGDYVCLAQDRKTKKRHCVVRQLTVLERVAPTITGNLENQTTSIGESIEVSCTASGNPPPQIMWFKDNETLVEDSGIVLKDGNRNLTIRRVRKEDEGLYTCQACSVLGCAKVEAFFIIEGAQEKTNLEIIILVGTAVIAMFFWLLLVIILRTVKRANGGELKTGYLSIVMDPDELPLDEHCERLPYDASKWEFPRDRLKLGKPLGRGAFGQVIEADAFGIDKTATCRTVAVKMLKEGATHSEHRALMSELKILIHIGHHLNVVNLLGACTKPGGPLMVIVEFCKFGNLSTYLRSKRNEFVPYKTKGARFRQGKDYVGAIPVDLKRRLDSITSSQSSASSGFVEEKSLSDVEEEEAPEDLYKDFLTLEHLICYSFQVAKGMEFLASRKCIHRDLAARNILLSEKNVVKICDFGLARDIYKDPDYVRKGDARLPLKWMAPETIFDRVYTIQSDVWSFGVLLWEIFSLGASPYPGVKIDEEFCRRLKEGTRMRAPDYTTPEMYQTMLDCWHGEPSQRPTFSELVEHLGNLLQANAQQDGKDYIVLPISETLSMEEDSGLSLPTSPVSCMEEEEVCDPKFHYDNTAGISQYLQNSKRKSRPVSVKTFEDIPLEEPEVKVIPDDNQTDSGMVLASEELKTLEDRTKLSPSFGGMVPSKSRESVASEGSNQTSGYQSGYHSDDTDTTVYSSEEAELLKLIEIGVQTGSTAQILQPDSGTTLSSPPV
Sequence of RET recombinant protein (RET-wild type) (P07949 29-1114): as the sequence (P07949 29-1114) above
Sequence of RET-Gatekeeper mutation (V804L) recombinant protein (P07949 29-1114 V804L): as the sequence (P07949 29-1114) above, with V776L counted along it

As a reminder, the IC50 is the concentration that inhibits the measured activity by half. Consider `COc1cc2cc(-c3ccc(CC(=O)Nc4cc(C(C)(C)C(F)(F)F)no4)cc3)cnc2cc1OC` [Ref Ex. 1, 2-[4-(6,7-Dimethoxyquinolin-3-yl)phenyl]-N-[3-(1,1,1-trifluoro-2-methylpropan-2-yl)-1,2-oxazol-5-yl]-acetamide, reference compound], for which the IC50 in data set [1] (cell system, comparator compounds, Form: Mesylate, read-out: IC50 (nM) KDR) is 7 nM; in data set [2] (comparator compounds) it was 8 nM.
Turning to `COc1cc2cc(-c3ccc(CC(=O)Nc4cc(C(C)(C)C(F)(F)F)n[nH]4)cn3)cnc2cc1OC` [Example 6, 2-[6-(6,7-Dimethoxyquinolin-3-yl)pyridin-3-yl]-N-[3-(1,1,1-trifluoro-2-methylpropan-2-yl)-1H-pyrazol-5-yl]acetamide Methanesulfonate], the IC50 in data set [1] (KDR, HUVEC cells, VEGF165 50 ng/ml, compound 2 hours, read-out: IC50) worked out at 566 nM; in data set [1] (setting [8]), 566 nM.
As to `COc1cc2ncc(-c3ccc(CC(=O)Nc4cc(C(C)(C)C(F)(F)F)on4)cc3)nc2cc1OC` [Ex. 8, reference compound], the values for the IC50 in data set [1] (setting [9]) and in data set [2] (comparator compounds) were 9 nM and 7 nM, respectively.
Taken in the same sequence, the figures for `COc1cc2cc(-c3ccc(CC(=O)Nc4cc(C(C)(C)C(F)(F)F)n[nH]4)cc3)cnc2cc1OC` [Ref Ex. 2, 2-[4-(6,7-Dimethoxyquinolin-3-yl)phenyl]-N-[3-(1,1,1-trifluoro-2-methylpropan-2-yl)-1H-pyrazol-5-yl]-acetamide, reference compound] were 16 nM and 5 nM.
In the case of `COc1cc2ncc(-c3cnc(CC(=O)Nc4cc(C(C)(C)C(F)(F)F)on4)c(F)c3)nc2cc1OC` [Compound 229, reference compound], the “inhibitory effect in vitro” value in data set [3] (in vitro) is “strong inhibitory effect”. Also, the IC50 was found to be 1.5 nM in data set [3] (non-cell system, read-out: Biochemical assay (non-cell system) IC50 (nM) RET-WT) and 1.7 nM in data set [4]. The “suppression of phosphorylated RET (pRET) in Ba/F3-RET-V804M tumors” value in data set [5] (10 mg/kg oral) is on record as “did not suppress”. Also, the exposure in tumors result in data set [5] (Ba/F3-RET-V804M tumors, 10 mg/kg oral) is on record as “poor exposure in tumors”. Further, the “Relative phosphorylation of RET (%) in Ba/F3-RET-V804M tumors” value in data set [5] (Dose: 10 mg/kg oral, six hours after administration, relative to vehicle) was determined as 98%.
In the case of `COc1cc2cc(-c3ccc(CC(=O)Nc4cc(C(C)(C)C(F)(F)F)on4)cn3)cnc2cc1OC` [Example 2, 2-[6-(6,7-Dimethoxyquinolin-3-yl)pyridin-3-yl]-N-[5-(1,1,1-trifluoro-2-methylpropan-2-yl)-1,2-oxazol-3-yl]acetamide Methanesulfonate], the IC50 in data set [1] (setting [8]) worked out at 828 nM.
With `COc1cc2cc(-c3ccc(CC(=O)Nc4cc(C(C)(C)C(F)(F)F)on4)cn3)cnc2cc1OC` [Example 1, 2-[6-(6,7-Dimethoxyquinolin-3-yl)pyridin-3-yl]-N-[5-(1,1,1-trifluoro-2-methylpropan-2-yl)-1,2-oxazol-3-yl]acetamide], the IC50 in data set [2] was 18 nM.
On to `CCc1cc2c(cc1N1CCC(N3CCOCC3)CC1)C(C)(C)c1[nH]c3cc(C#N)ccc3c1C2=O` [Alectinib, 9-Ethyl-6,6-dimethyl-8-[4-(morpholin-4-yl)piperidin-1-yl]-11-oxo-6,11-dihydro-5H-benzo[b]carbazole-3-carbonitrile, reference compound], for which the IC50 was 308 nM in data set [6] and 112 nM in data set [7].
As for `COc1cc2cc(-c3ccc(CC(=O)Nc4cc(C(C)(C)C(F)(F)F)no4)c(F)c3)cnc2cc1OC` [Ref Ex. 3, 2-[4-(6,7-Dimethoxyquinolin-3-yl)-2-fluorophenyl]-N-[3-(1,1,1-trifluoro-2-methylpropan-2-yl)-1,2-oxazol-5-yl]acetamide, reference compound], the figures for the IC50 in data set [1] (setting [9]) and in data set [2] (comparator compounds) were 6 nM and 8 nM, respectively.
